Experimental data from patent publication US8778304B2, “TSPO-targeting compounds and uses thereof” (The Johns Hopkins University, priority 2010, dated 2014).

Experiments:
TSPO [1] = molecular target: T1, TSPO (Homo sapiens, UniProt P30536); conditions: cited from earlier work
TSPO [2] = conditions: cited from earlier work
TSPO [3] = molecular target: T1, TSPO; conditions: first human study; cited from earlier work
TSPO [4] = molecular target: T2, TSPO (Mus musculus, UniProt P50637); conditions: Sandhoff mice at 4 months of age; cited from earlier work
TSPO [5] = molecular target: T2, TSPO; assay: [125I]-IodoDPA713 microSPECT/CT imaging of heart in coxsackievirus-induced myocarditis mice; type: in vivo
Method: (§1) An X-SPECT small-animal SPECT/CT system (Gamma Medica-Ideas) was used for image acquisition. Each mouse was anesthetized with isofluorane prior to imaging. About 1-2 mCi of [^125I]-IodoDPA713 was injected into each mouse via intravenous injection, and images were acquired immediately after injection. The SPECT projection data were acquired using 2 low-energy, high-resolution parallel-hole collimators with a radius of rotation of 4.65 cm (spatial resolution, 1.6 mm). The tomographic data were acquired in 64 projections over 360° at 20 s per projection. After tomography, CT was acquired in 512 projections to allow anatomic coregistration. Data were reconstructed using the ordered subsets-expectation maximization algorithm and analyzed using AMIDE software (free software provided by SourceForge). Data was analyzed using Analysis software, and time activity curve of the [^125I]-IodoDPA713 uptake was generated for each mouse. Three mice per treatment were scanned for the study.

TSPO [6] = molecular target: T2, TSPO; assay: [125I]-IodoDPA713 microSPECT/CT dynamic in vivo imaging of TSPO in Sandhoff disease mice; design: Fresh-frozen brains were sectioned (20 μm) on a freezing cryostat in the horizontal plane; from tissue; host or cells: mouse brain sections (fresh-frozen for A4, PLP-fixed for A5)
Method: as §1, with “genotype” for “treatment”, “study. For the blocking study, non-radioactive IodoDPA713 (20 μM) was intravenously co-injected with [^125I]-IodoDPA713, and images were acquired immediately after [^125I] injection.” for “study.”

TSPO [7] = molecular target: T2, TSPO; assay: Quantitative receptor autoradiography with [125I]-IodoDPA713 on Sandhoff mouse brain sections; type: binding; design: Fresh-frozen brains were sectioned (20 μm) on a freezing cryostat in the horizontal plane; from tissue; host or cells: mouse brain sections (fresh-frozen for A4, PLP-fixed for A5)
Method: Fresh-frozen brains were sectioned (20 μm) on a freezing cryostat in the horizontal plane. Brain sections were thaw-mounted onto poly-L-lysine-coated slides (Sigma-Aldrich, St. Louis, Mo.) and stored at −20° C. until used. [^125I]-IodoDPA713 autoradiography to measure TSPO levels were performed on adjacent brain sections using the same procedures. Slides were thawed and dried at 37° C. for 30 min and prewashed in 50 mM Tris-HCl buffer (pH 7.4) for 5 min at room temperature. Sections were then incubated in 0.5 nM [^125I]-IodoDPA713 in buffer for 30 min at room temperature. For non-specific binding, adjacent sections were incubated in the presence of […] racemic PK11195. The reaction was terminated by two 3-min washes in cold buffer (4° C.) and two dips in cold deionized water (4° C.). Sections incubated with [^125I]-IodoDPA713 were apposed to Kodak Bio-Max MR films with [^125I]-Microscales (GE Healthcare, Piscataway, N.J.) for 1 h. Images were acquired and quantified using the MCID software (InterFocus Imaging Ltd, Cambridge, England).

TSPO [8] = molecular target: T2, TSPO; assay: SPECT-CT imaging of LPS-induced lung inflammation in mice; type: in vivo; conditions: for lung signal to background ratio: 1 h postinjection, lungs vs muscle
Method: Eight- to 10-week-old female CD-1 mice (Charles River Labs) were imaged. Mice were anesthetized by brief isoflurane sedation. While anesthetized, intranasal instillation was conducted by placing 10 μg/60 μL (167 μg/mL) of lipopolysaccharide (LPS) onto the nares (Szarka et al., “A murine model of pulmonary damage induced by lipopolysaccharide via intranasal instillation,” J. Immunol. Methods, vol. 202, pp. 49-57, 1997). The 60 μL sample was applied onto the nares as three 20 μL drops. Phosphate-buffered saline (PBS) was administered in a similar fashion and used as the control.
For single photon emission computed tomography-computed tomography (SPECT-CT) imaging 18.5 MBq (500 μCi) of [^125I]1 was injected via the tail vein into the LPS and PBS treated mice and imaged 1 h later, which corresponded to 24 h after the administration of LPS or PBS. That time point was chosen since it represents the time at which there is maximum inflammation in the lungs, as determined by a time course study with histologic correlation (data not shown). Each mouse was anesthetized with isoflurane and maintained under 1-2% isoflurane in oxygen. The mouse was positioned on the X-SPECT (Gamma Medica, Northridge, Calif.) gantry and was scanned using two opposing low energy pinhole collimators (Gamma Medica) rotating through 360° in 3° increments for 20 s per increment. Images were reconstructed using LumaGem software that accompanies the X-SPECT. Immediately following SPECT acquisition, the mice were scanned by CT over a 3-cm field-of-view using a 600-μA, 50 kV beam. […] Data were reconstructed using the ordered subsets-expectation maximization (OS-EM) algorithm. The signal to background ratio was calculated from the images by drawing regions of interest over the lungs (signal) and muscle, (background).

TSPO [9] = molecular target: T3, TSPO (Rattus norvegicus, UniProt P16257); assay: In vitro autoradiography with [125I]1 on rat brain sections (neurotoxicant model of brain inflammation); type: binding
T3 construct: Fresh-frozen brains were sectioned (20 μm) on a freezing cryostat in the horizontal plane; from tissue; host or cells: rat brain sections (control and neurotoxicant-treated)
Method: Fresh-frozen brains were sectioned (20 μm) on a freezing cryostat in the horizontal plane. Brain sections were thaw-mounted onto poly-L-lysine-coated slides (Sigma) and stored at −20° C. until used. Autoradiography using [^125I]IodoDPA-713 ([^125I]1) was performed on adjacent brain sections using the following procedures. Slides were thawed and dried at 37° C. for 30 min and prewashed in 50 mM Tris-HCl buffer (pH 7.4) for 5 min at room temperature. Sections were then incubated in 1.4 nM [^125I]1 in 50 mM Tris-HCl buffer for 30 min at room temperature. For non-specific binding, adjacent sections were incubated in the presence of 10 μM racemic PK11195. The reaction was terminated by two 3 min washes in cold buffer (4° C.) and two dips in cold deionized water (4° C.). Sections were air-dried and apposed to Kodak Bio-Max MR film for 1 h. Images were acquired using the MCID image analysis software (InterFocus Imaging Ltd., Cambridge, England).
The first study involved a model of brain inflammation in which rats were exposed to a seizure-inducing neurotoxicant (FIG. 2). Note that higher levels of [^125I]1 were present in the neurotoxicant-treated rat brain (FIG. 2B) than in control brain (FIG. 2A). Exposure of the tissue specimens to [^125I]1 to generate these images required only 60 min, as opposed to 4-5 weeks often needed for tritium-labeled compounds when exposing the samples to film.

T1 sequence (P30536 whole entry): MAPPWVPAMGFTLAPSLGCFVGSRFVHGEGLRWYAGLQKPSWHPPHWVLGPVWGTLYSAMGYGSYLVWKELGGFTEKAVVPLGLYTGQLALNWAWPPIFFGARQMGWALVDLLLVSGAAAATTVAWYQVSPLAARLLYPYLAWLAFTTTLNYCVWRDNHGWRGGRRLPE

## CCN(CC)C(=O)Cc1c(-c2ccc(OC)cc2)nn2c(C)cc(C)nc12 [DPA-713, N,N-diethyl-2-[2-(4-methoxy-phenyl)-5,7-dimethyl-pyrazolo[1,5-a]pyrimidin-3-yl]-acetamide]
TSPO [1]
  affinity for TSPO relative to PK11195: nearly twice

## CCN(CC)C(=O)Cc1c(-c2ccc(OC)cc2)nn2c(C)cc(C)nc12 [[^11C]DPA-713]
TSPO [2]; PET imaging
  brain uptake relative to [11C]-PK11195: higher brain uptake
TSPO [2]; rodent model of brain injury
  signal-to-noise ratios relative to [11C]PK11195: higher signal-to-noise ratios
TSPO [3]
  binding potential relative to [11C]PK11195: higher binding potential

## CCC(C)N(C)C(=O)c1cc2ccccc2c(-c2ccccc2Cl)n1 (centres unmarked) [[^11C]PK11195]
TSPO [2]; in vivo
  brain uptake: poor brain uptake
  non-specific binding: significant non-specific binding
TSPO [4]
  PET uptake in Sandhoff mice compared to wildtype: higher

## CCN(CC)C(=O)Cc1c(-c2ccc(OC)c([125I])c2)nn2c(C)cc(C)nc12 [[^125I]1, N,N-Diethyl-2-[2-(3-[^125I]-iodo-4-methoxyphenyl)-5,7-dimethylpyrazolo[1,5-a]pyrimidin-3-yl]acetamide]
TSPO [5]; coxsackievirus-injected mice
  organ specificity of increased uptake (lungs and liver also analyzed): heart-specific
TSPO [5]; n=3, p<0.05, FIG. 15
  tracer uptake (SUV) in heart, coxsackievirus-injected versus PBS-injected control mice: statistically significant increase
TSPO [6]; 2 months, p=0.0484
  tracer uptake (SUV) in thalamus, Sandhoff versus wildtype: statistically significant increase
TSPO [6]; 3 months, p=0.0172
  tracer uptake (SUV) in brainstem, Sandhoff versus wildtype: statistically significant increase
TSPO [6]; Sandhoff mouse, co-injected nonradioactive IodoDPA713 (20 μM)
  tracer uptake with blocker versus without blocker: reduced uptake
TSPO [6]; quantitative analysis, FIG. 8K
  tracer uptake (SUV) in thalamus, cerebellum and brainstem, Sandhoff versus wildtype: trend of increased uptake
TSPO [6]; thalamus, FIG. 8J
  tracer uptake in thalamus, Sandhoff versus wildtype (time-activity curve): consistently had higher uptake
TSPO [7]; 2 months, did not reach statistical significance, p=0.098
  binding in cerebellum, Sandhoff versus wildtype: modest increase
TSPO [7]; 2 months, p=0.0007
  binding to TSPO in thalamus, Sandhoff versus wildtype: significant increases
TSPO [7]; 2 months, p=0.0011
  binding to TSPO in brainstem, Sandhoff versus wildtype: significant increases
TSPO [7]; 2 months, p=0.63
  binding in hippocampus, Sandhoff versus wildtype: no significant increase
TSPO [7]; 2 months, p=0.98
  binding in cerebral cortex, Sandhoff versus wildtype: no significant increase
TSPO [7]; 3 months, p<0.0001
  binding in thalamus, Sandhoff versus wildtype: increased TSPO binding
TSPO [7]; 3 months, p=0.0016
  binding in brainstem, Sandhoff versus wildtype: increased TSPO binding
TSPO [7]; 3 months, p=0.0037
  binding in cerebral cortex, Sandhoff versus wildtype: increased binding
TSPO [7]; 3 months, p=0.0151
  binding in cerebellum, Sandhoff versus wildtype: increased binding
TSPO [7]; 3 months, p=0.5912
  binding in hippocampus, Sandhoff versus wildtype: no increased TSPO binding
TSPO [8]; LPS treated mouse
  lung signal to background ratio: 21.2
TSPO [8]; SPECT-CT, FIG. 3
  uptake in inflamed mouse lungs relative to normal lungs: 1.5 fold
TSPO [8]; control mouse
  lung signal to background ratio: 14.6
TSPO [9]; 1.4 nM tracer, horizontal brain sections, FIG. 2A/2B
  level of [125I]1 binding in neurotoxicant-treated rat brain versus control brain: higher levels
TSPO [9]; neurotoxicant-treated rat, 10 μM PK11195, FIG. 2C
  blocking of [125I]1 uptake by PK11195 (specificity for TSPO): almost completely blocked
